This data set concerns the target hERG ion channel (Homo sapiens, UniProt Q12809). As to the kind of experiment: hERG activity (process of Bridgland-Taylor et al.). Type of data set: cell-based. How it is done:
hERG activity was assessed using the process described by Bridgland-Taylor, M. H., et al, J. Pharm. Tox. Methods 54 (2006) 189-199.
(In general: Block of hERG is tested as a sign of cardiac risk.)
Chain of hERG ion channel (Q12809 whole entry): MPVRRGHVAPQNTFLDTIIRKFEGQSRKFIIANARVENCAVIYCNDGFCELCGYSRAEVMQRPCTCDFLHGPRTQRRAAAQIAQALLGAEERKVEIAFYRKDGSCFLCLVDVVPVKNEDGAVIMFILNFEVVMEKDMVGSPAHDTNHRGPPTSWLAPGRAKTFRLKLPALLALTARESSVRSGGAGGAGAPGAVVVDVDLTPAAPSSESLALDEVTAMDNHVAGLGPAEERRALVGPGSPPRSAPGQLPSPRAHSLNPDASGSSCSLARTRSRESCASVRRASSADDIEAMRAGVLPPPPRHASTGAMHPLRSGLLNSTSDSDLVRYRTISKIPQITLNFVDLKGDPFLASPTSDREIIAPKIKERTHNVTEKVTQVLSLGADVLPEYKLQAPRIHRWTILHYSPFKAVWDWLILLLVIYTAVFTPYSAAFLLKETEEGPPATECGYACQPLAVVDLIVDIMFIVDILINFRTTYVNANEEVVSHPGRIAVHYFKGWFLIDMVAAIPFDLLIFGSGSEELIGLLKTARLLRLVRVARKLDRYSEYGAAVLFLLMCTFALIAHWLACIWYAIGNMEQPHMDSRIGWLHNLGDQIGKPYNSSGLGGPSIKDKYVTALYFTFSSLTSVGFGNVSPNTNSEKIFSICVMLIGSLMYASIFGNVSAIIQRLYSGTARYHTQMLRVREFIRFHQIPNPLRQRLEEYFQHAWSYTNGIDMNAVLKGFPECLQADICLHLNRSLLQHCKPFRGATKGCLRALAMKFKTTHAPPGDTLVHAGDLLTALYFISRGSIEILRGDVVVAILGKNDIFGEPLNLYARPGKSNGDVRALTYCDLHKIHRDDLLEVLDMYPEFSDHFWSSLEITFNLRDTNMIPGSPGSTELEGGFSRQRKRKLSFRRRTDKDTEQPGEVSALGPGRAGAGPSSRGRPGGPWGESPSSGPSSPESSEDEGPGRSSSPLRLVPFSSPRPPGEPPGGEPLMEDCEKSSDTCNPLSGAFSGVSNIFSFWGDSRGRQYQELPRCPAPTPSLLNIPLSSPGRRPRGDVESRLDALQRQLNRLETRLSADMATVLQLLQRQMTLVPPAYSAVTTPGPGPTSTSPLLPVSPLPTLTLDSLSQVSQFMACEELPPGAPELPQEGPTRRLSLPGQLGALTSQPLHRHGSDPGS
As to `O=C1c2c(Cl)cc(-c3noc(CN4CCNCC4)n3)cc2CN1Cc1ccc(OC(F)(F)F)cc1` [Example 1, 7-Chloro-5-(5-piperazin-1-ylmethyl-[1,2,4]oxadiazol-3-yl)-2-(4-trifluoromethoxybenzyl)-2,3-dihydroisoindol-1-one], the hERG was 10 µM.

As to `O=C1c2c(Cl)cc(-c3noc(CN4CCNCC4)n3)cc2CN1Cc1ccc(Cl)cc1` [Example 2, 7-chloro-2-(4-chlorobenzyl)-5-(5-piperazin-1-ylmethyl-[1,2,4]oxadiazol-3-yl)-2,3-dihydroisoindol-1-one], the hERG came to 14 µM.

The compound `Cc1cc(-c2noc(CN3CCNCC3)n2)cc2c1C(=O)N(Cc1ccc(OC(F)(F)F)cc1)C2` [Example 3, 7-methyl-5-(5-piperazin-1-ylmethyl-[1,2,4]oxadiazol-3-yl)-2-(4-trifluoromethoxy-benzyl)-2,3-dihydroisoindol-1-one] returned a hERG of 13 µM.

`Cc1cc(-c2noc(CN3CCNCC3)n2)cc2c1C(=O)N(Cc1ccc(Cl)cc1)C2` [Example 4, 2-(4-chlorobenzyl)-7-methyl-5-(5-piperazin-1-ylmethyl-[1,2,4]oxadiazol-3-yl)-2,3-dihydroisoindol-1-one] showed a hERG of 8.9 µM.

`Cc1cc(-c2noc(CN3C[C@@H]4C[C@H]3CN4)n2)cc2c1C(=O)N(Cc1ccc(OC(F)(F)F)cc1)C2` [Example 5, 5-[5-(2,5-diaza-bicyclo[2.2.1]hept-2-ylmethyl)-[1,2,4]oxadiazol-3-yl]-7-methyl-2-(4-trifluoromethoxybenzyl)-2,3-dihydroisoindol-1-one] yielded a hERG of 17 µM.

`Cc1cc(-c2noc(CN3CCNCC3)n2)cc2c1C(=O)N([C@@H](C)c1ccc(Cl)cc1)C2` [Example 6, 2-[(S)-1-(4-Chloro-phenyl)-ethyl]-7-methyl-5-(5-piperazin-1-ylmethyl-[1,2,4]oxadiazol-3-yl)-2,3-dihydro-isoindol-1-one] yielded a hERG of 14 µM.

In the case of `Cc1cc(-c2noc(CN3C[C@@H]4C[C@H]3CN4)n2)cc2c1C(=O)N([C@@H](C)c1ccc(Cl)cc1)C2` [Example 7, 2-[(S)-1-(4-Chloro-phenyl)-ethyl]-5-{5-[(1S,4S)-1-(2,5-diaza-bicyclo[2.2.1]hept-2-yl)methyl]-[1,2,4]oxadiazol-3-yl}-7-methyl-2,3-dihydro-isoindol-1-one], the hERG is 12 µM.

Turning to `Cc1cc(-c2noc(CN3CCNC[C@H]3C)n2)cc2c1C(=O)N(Cc1ccc(Cl)cc1)C2` [Example 8, 2-(4-chloro-benzyl)-7-methyl-5-[5-(2-methyl-piperazin-1-ylmethyl)-[1,2,4]oxadiazol-3-yl]-2,3-dihydroisoindol-1-one], the hERG came to 11 µM.

As to `Cc1cc(-c2noc(CN3CCNC[C@@H]3C)n2)cc2c1C(=O)N(Cc1ccc(Cl)cc1)C2` [Example 9, 2-(4-chloro-benzyl)-7-methyl-5-[5-(2-methyl-piperazin-1-ylmethyl)-[1,2,4]oxadiazol-3-yl]-2,3-dihydroisoindol-1-one], the hERG is 11 µM.

For the compound `Cc1cc(-c2noc(CN3CCNC(C)C3)n2)cc2c1C(=O)N(Cc1ccc(Cl)cc1)C2` (centres unmarked) [Example 10, 2-(4-chloro-benzyl)-7-methyl-5-[5-(3-methyl-piperazin-1-ylmethyl)-[1,2,4]oxadiazol-3-yl]-2,3-dihydroisoindol-1-one], the hERG turned out to be 11 µM.

`CC1(C)CN(Cc2nc(-c3cc(Cl)c4c(c3)CN(Cc3ccc(OC(F)(F)F)cc3)C4=O)no2)CCN1` [Example 11, 7-chloro-5-[5-(3,3-dimethyl-piperazin-1-ylmethyl)-[1,2,4]oxadiazol-3-yl]-2-(4-trifluoromethoxy-benzyl)-2,3-dihydroisoindol-1-one]: the hERG amounted to 13 µM.

For `Cc1cc(-c2noc(C(C)N3CCNCC3)n2)cc2c1C(=O)N(Cc1ccc(OC(F)(F)F)cc1)C2` (centres unmarked) [Example 12, 7-Methyl-5-[5-(1-piperazin-1-yl-ethyl)-[1,2,4]oxadiazol-3-yl]-2-(4-trifluoromethoxy-benzyl)-2,3-dihydro-isoindol-1-one], the hERG amounted to 17 µM.

The compound `Cc1cc(-c2noc(C(C)N3CCNCC3)n2)cc2c1C(=O)N(Cc1ccc(Cl)cc1)C2` (centres unmarked) [Example 13, 2-(4-Chloro-benzyl)-7-methyl-5-[5-(1-piperazin-1-yl-ethyl)-[1,2,4]oxadiazol-3-yl]-2,3-dihydro-isoindol-1-one] displayed a hERG of 13 µM.

Regarding `Cc1cc(-c2noc(C(C)N3CCNCC3)n2)cc2c1C(=O)N([C@@H](C)c1ccc(Cl)cc1)C2` (stereo partly drawn) [Example 14, 2-[(S)-1-(4-Chloro-phenyl)-ethyl]-7-methyl-5-[5-(1-piperazin-1-yl-ethyl)-[1,2,4]oxadiazol-3-yl]-2,3-dihydro-isoindol-1-one], the hERG was determined as 11 µM.

The values above are taken from US20100280082A1, “Metabotropic Glutamate Receptor Oxadiazole Ligands and Their Use as Potentiators” (AstraZeneca AB, priority 2007, published 2010).
